Article PMC7340254, “Structure-based screening of binding affinities via small-angle X-ray scattering” (IUCrJ, 2020)
Where two headings read alike, the source gives them in different places.

How the values were obtained:
[1] = target: T1, aspartate/glutamate-binding protein (DEBP) (Escherichia coli, UniProt P37902); test: SAXS-based ligand titration; set-up: species or system E. coli
T1 construct: made in house; host or cells: E. coli BL21(DE3)
Source text: Their preliminary results have been excluded from this report.

[2] = target: DEBP; set-up: method as in Clifton & Jackson (2016); conditions: ref Clifton & Jackson (2016), read-out: K D (ITC, literature); cited from earlier work
[3] = target: GlnBP; set-up: method as in Clifton & Jackson (2016); conditions: ref Clifton & Jackson (2016), read-out: K D (ITC, literature); cited from earlier work
[4] = target: T2, histidine-binding protein (HisBP) (Escherichia coli, UniProt P0AEU0); test: biochemical
Protocol: (§1) Titrations were conducted at fixed protein concentrations to exclude signal-to-noise factors. An initial mass concentration of 2.0 or 4.0 mg ml^−1 was employed in prospective experiments, then scaled to 2.0, 1.0, 0.5 and 0.25 mg ml^−1 in later concentration-variation studies. […] A total of eight beamline experiments were conducted, using the automated sample changing environments available on site, operated in constant-flow mode: three times at ESRF BM29, three at DESY P12, once at Australian Synchrotron SAXS/WAXS and once at Diamond B21. […] Furthermore, experiments at ESRF BM29 and Diamond B21 were carried out on site, while the DESY P12 experiment was carried out by mail-in. For these measurements, samples were prepared by pipetting ligand–protein mixtures onto 96-well plates prior to transport. As for the Australian Synchrotron measurements, apo–HisBP was lyophilized in its final buffer and reconstituted on site using pure H2O and then mixed with the ligands in 96-well plates.
(§2) Buffer-subtracted intensities provided from respective synchrotron pipelines were used as starting points for analysis. […] Thus, an intermediate value of 7.2 nm was fixed for all computations involving D max including V R.
(§3) This was used to assist in locating data points affected by sample handling errors or measurement failures, along with detectable aggregation. The ideal minimum angle after removal of parasitic scattering is 0.1–0.15 nm^−1, although a more conservative cutoff was used to collectively eliminate residual aggregation. The maximum usable q was determined by visual inspection of noise. The final ranges used across all HisBP beamline sessions were: 0.2–2.0 nm^−1 at 20 µM and below, 0.25–2.5 nm^−1 at 40 µM, and 0.3–3 nm^−1 above 80 µM. The q-ranges for DEBP and GlnBP were set to 0.1–2.8 nm^−1.
(§4) A common scattering reference is created per HisBP concentration and per beamline experiment by averaging apo protein replicates after discarding outliers. This reference is used for both V R and χlin computations.
(§5) To fit binding curves against metrics, we consider all titrations conducted per protein concentration per beamline experiment as a single set, after removing data points resulting from aggregation, preparation errors or measurement errors. […] Since the two-state binding curve at constant [R] cannot effectively discriminate between K D values much larger or smaller than [R], fitted K D values are limited to within four orders of magnitude of the receptor concentration (cf. Fig. S1). […] Error bars indicate σ of logK D from the ensemble of replicate predictions. For metrics where uncertainty was not computed (V R and V P), the uncertainty was estimated by single-point removal, where K D was recomputed after removal of each titration point. The σ of the resulting replicates are taken as the σ of logK D. To eliminate cases where the fitting process fails due to ill-constrained parameters, replicates were discarded if the fitted apo–holo differences were >3σ from the mean value of all replicates.

[5] = target: HisBP; set-up: method as in Paul et al. (2016); conditions: ref Paul et al. (2016), read-out: K D (ITC, literature); cited from earlier work
[6] = target: T2, histidine-binding protein (HisBP); test: biochemical; remark: listed apart in the source
Protocol: All ITC measurements were conducted on a Malvern MicroCal PEAQ ITC at 20°C with stirring at 200 rev min^−1 using the same buffer as in SAXS measurements. The cell was initially loaded with 200 µl of 20 µM protein with an initial ligand concentration of 200 µM in the syringe to quantify His:HisBP binding. This was further adjusted in subsequent runs to resolve weaker interactions as necessary.

[7] = target: T2, histidine-binding protein (HisBP); conditions: His:HisBP
Protocol: as §1, §2, §3, §4, §5

[8] = K D fitted to SAXS V R titration curves, AustSynch, 20s exposure, […] 10^13 photons, HisBP 19 µM
[9] = K D fitted to SAXS V R titration curves, AustSynch, 20s exposure, […] 10^13 photons, HisBP […] µM
[10] = K D fitted to SAXS V R titration curves, AustSynch, 20s exposure, […] 10^13 photons, HisBP 76 µM
[11] = K D fitted to SAXS V R titration curves, DESY, 4s exposure, […] 10^13 photons, HisBP 10 µM
[12] = K D fitted to SAXS V R titration curves, DESY, 4s exposure, […] 10^13 photons, HisBP 20 µM
[13] = K D fitted to SAXS V R titration curves, DESY, 4s exposure, […] 10^13 photons, HisBP 40 µM
[14] = K D fitted to SAXS V R titration curves, DESY, 4s exposure, […] 10^13 photons, HisBP 80 µM
[15] = K D fitted to SAXS V R titration curves, Diamond, 40s exposure, […] 10^14 photons, HisBP 10 µM
[16] = K D fitted to SAXS V R titration curves, Diamond, 40s exposure, […] 10^14 photons, HisBP 20 µM
[17] = K D fitted to SAXS V R titration curves, Diamond, 40s exposure, […] 10^14 photons, HisBP 40 µM
[18] = K D fitted to SAXS V R titration curves, Diamond, 40s exposure, […] 10^14 photons, HisBP 80 µM
[19] = K D fitted to SAXS V R titration curves, ESRF, 5s exposure, 3.0 × 10^12 photons, HisBP 160 µM
[20] = KD fitted to SAXS Rg curves, AustSynch, 20s exposure, HisBP […] µM
[21] = KD fitted to SAXS Rg curves, AustSynch, 20s exposure, HisBP 76 µM
[22] = KD fitted to SAXS Rg curves, DESY, 4s exposure, HisBP 10 µM
[23] = KD fitted to SAXS Rg curves, DESY, 4s exposure, HisBP 20 µM
[24] = KD fitted to SAXS Rg curves, DESY, 4s exposure, HisBP 40 µM
[25] = KD fitted to SAXS Rg curves, DESY, 4s exposure, HisBP 80 µM
[26] = KD fitted to SAXS Rg curves, ESRF, 5s exposure, HisBP 160 µM
[27] = KD fitted to SAXS Vc curves, AustSynch, 20s exposure, HisBP […] µM
[28] = KD fitted to SAXS Vc curves, AustSynch, 20s exposure, HisBP 76 µM
[29] = KD fitted to SAXS Vc curves, DESY, 4s exposure, HisBP 40 µM
[30] = KD fitted to SAXS Vc curves, DESY, 4s exposure, HisBP 80 µM
[31] = KD fitted to SAXS Vc curves, ESRF, 5s exposure, HisBP 160 µM
[32] = KD fitted to SAXS χlin. curves, AustSynch, 20s exposure, HisBP […] µM
[33] = KD fitted to SAXS χlin. curves, AustSynch, 20s exposure, HisBP 76 µM
[34] = KD fitted to SAXS χlin. curves, DESY, 4s exposure, HisBP 10 µM
[35] = KD fitted to SAXS χlin. curves, DESY, 4s exposure, HisBP 20 µM
[36] = KD fitted to SAXS χlin. curves, DESY, 4s exposure, HisBP 40 µM
[37] = KD fitted to SAXS χlin. curves, DESY, 4s exposure, HisBP 80 µM
[38] = KD fitted to SAXS χlin. curves, Diamond, 40s exposure, HisBP 40 µM
[39] = KD fitted to SAXS χlin. curves, Diamond, 40s exposure, HisBP 80 µM
[40] = KD fitted to SAXS χlin. curves, ESRF, 5s exposure, HisBP 152 µM

T1 sequence (P37902 28-302): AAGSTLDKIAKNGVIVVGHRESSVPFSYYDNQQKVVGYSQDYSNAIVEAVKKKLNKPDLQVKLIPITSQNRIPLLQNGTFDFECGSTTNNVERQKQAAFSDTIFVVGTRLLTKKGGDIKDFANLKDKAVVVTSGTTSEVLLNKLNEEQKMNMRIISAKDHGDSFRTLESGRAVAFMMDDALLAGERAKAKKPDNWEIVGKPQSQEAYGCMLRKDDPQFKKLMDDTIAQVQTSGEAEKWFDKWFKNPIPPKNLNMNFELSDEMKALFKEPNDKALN
T2 sequence (P0AEU0 23-260): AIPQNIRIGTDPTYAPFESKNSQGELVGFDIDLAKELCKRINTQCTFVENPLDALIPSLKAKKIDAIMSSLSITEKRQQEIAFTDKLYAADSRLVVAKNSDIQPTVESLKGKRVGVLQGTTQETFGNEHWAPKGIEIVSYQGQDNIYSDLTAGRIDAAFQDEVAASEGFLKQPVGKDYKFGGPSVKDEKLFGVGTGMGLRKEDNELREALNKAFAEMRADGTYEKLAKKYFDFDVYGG

In the case of `NC(=O)C[C@H](N)C(=O)O` [Asn], the “binding suggested by SAXS titrations” value ([1]; DEBP, 2 mg ml^−1, 10^12 photons) is reported as “unexpected binding”.
For `N[C@@H](CC(=O)O)C(=O)O` [Asp, aspartate], the Kd [2] is given as 1.73 ± 0.49 µM.
In the case of `NC(=O)CC[C@H](N)C(=O)O` [Gln, glutamine], the Kd [3] is given as 0.106 ± 0.065 µM.
For `N[C@@H](CCC(=O)O)C(=O)O` [Glu, glutamate], the Kd [2] is given as 0.334 ± 0.12 µM, the “SAXS R g Exp. (saturated)” value ([1]; Glu:DEBP, ligand-excess conditions) is given as 20.6 ± 1.3 Å and the “SAXS ΔR g” value ([1]; Glu:DEBP, saturated versus apo) is given as −2.6 Å.
With `N[C@@H](Cc1c[nH]cn1)C(=O)O` [His, histidine] the Kd [4, 8] was 0.062 ± 0.028 µM, the Kd [4, 9] was 1.5 ± 0.7 µM and the Kd [4, 10] was 3.6 ± 0.74 µM. The Kd [4, 11] was 84 ± 68 µM, the Kd [4, 12] was 1 ± 0.19 µM and the Kd [4, 13] was 3.7 ± 0.58 µM. It also gave a Kd [4, 14] of 6.4 ± 1.1 µM, a Kd [4, 15] of 0.0014 ± 0.00092 µM and a Kd [4, 16] of 0.0051 ± 0.0041 µM. The Kd [4, 17] was 0.013 ± 0.011 µM, the Kd [4, 18] was 1.3 ± 0.5 µM and the Kd ([4]; K D fitted to SAXS V R titration curves, ESRF, 5s exposure, 3.0 × 10^12 photons, HisBP […] µM) was 0.24 ± 0.14 µM. For the same compound, the Kd [4, 19] was 0.37 ± 0.47 µM, the Kd [4, 20] was 6.3 ± 0.87 µM and the Kd [4, 21] was 1.7 ± 0.87 µM. It also gave a Kd [4, 22] of 100 ± 140 µM, a Kd [4, 23] of 0.0027 ± 0.0047 µM and a Kd [4, 24] of 4.2 ± 2.4 µM. For the same compound, the Kd [4, 25] was 8.2 ± 1.8 µM, the Kd ([4]; KD fitted to SAXS Rg curves, Diamond, 40s exposure, HisBP 10 µM) was 0.018 µM and the Kd ([4]; KD fitted to SAXS Rg curves, Diamond, 40s exposure, HisBP 20 µM) was 0.015 µM. For the same compound, the Kd ([4]; KD fitted to SAXS Rg curves, Diamond, 40s exposure, HisBP 80 µM) was 2.2 ± 3.1 µM, the Kd ([4]; KD fitted to SAXS Rg curves, ESRF, 5s exposure, HisBP […] µM) was 0.16 µM and the Kd [4, 26] was 0.61 ± 0.12 µM. The Kd ([4]; KD fitted to SAXS Vc curves, AustSynch, 20s exposure, HisBP 19 µM) was 0.16 µM, the Kd [4, 27] was 5.3 ± 3.7 µM and the Kd [4, 28] was 25 ± 8.1 µM. It also gave a Kd [4, 29] of 19 µM, a Kd [4, 30] of 5.8 µM and a Kd ([4]; KD fitted to SAXS Vc curves, Diamond, 40s exposure, HisBP 80 µM) of 9.9 µM. It also gave a Kd ([4]; KD fitted to SAXS Vc curves, ESRF, 5s exposure, HisBP 7.6 µM) of 2.8 µM, a Kd ([4]; KD fitted to SAXS Vc curves, ESRF, 5s exposure, HisBP […] µM) of 200 ± 490 µM and a Kd [4, 31] of 0.88 ± 2.4 µM. For the same compound, the Kd ([4]; KD fitted to SAXS χlin. curves, AustSynch, 20s exposure, HisBP 19 µM) was 1.2 µM, the Kd [4, 32] was 4.5 ± 1.5 µM and the Kd [4, 33] was 5.1 ± 0.75 µM. The Kd [4, 34] was 4.4 ± 2.8 µM, the Kd [4, 35] was 2.9 ± 1.5 µM and the Kd [4, 36] was 13 ± 3.5 µM. For the same compound, the Kd [4, 37] was 15 ± 1.9 µM, the Kd ([4]; KD fitted to SAXS χlin. curves, Diamond, 40s exposure, HisBP 20 µM) was 0.07 µM and the Kd [4, 38] was 4.3 ± 4.7 µM. It also gave a Kd [4, 39] of 20 ± 3.4 µM, a Kd ([4]; KD fitted to SAXS χlin. curves, ESRF, 5s exposure, HisBP 7.6 µM) of 0.5 µM and a Kd ([4]; KD fitted to SAXS χlin. curves, ESRF, 5s exposure, HisBP […] µM) of 0.099 µM. The Kd [4, 40] was 0.32 ± 0.051 µM, the Kd [5] was 0.064 ± 0.01 µM and the Kd [6] was 0.048 ± 0.0052 µM. The “SAXS R g Exp. (saturated)” value ([7]; ligand-excess conditions) was 18.3 ± 1.0 Å and the “SAXS ΔR g” value ([7]; saturated versus apo) was −1.3 Å.
`NCCCC[C@H](N)C(=O)O` [Lys, lysine] gave a Kd [4, 8] of 110 ± 10 µM, a Kd [4, 9] of 32 ± 4.6 µM and a Kd [4, 10] of 95 ± 11 µM. For the same compound, the Kd [4, 11] was 0.0023 ± 0.0016 µM, the Kd [4, 12] was 61 ± 6.4 µM and the Kd [4, 13] was 720 ± 350 µM. The Kd [4, 14] was 58 ± 7.5 µM, the Kd [4, 15] was 230 ± 200 µM and the Kd [4, 16] was 47 ± 3.6 µM. For the same compound, the Kd [4, 17] was 320 ± 210 µM, the Kd [4, 18] was 89 ± 9.6 µM and the Kd [4, 19] was 49 ± 4.1 µM. It also gave a Kd ([4]; KD fitted to SAXS Rg curves, AustSynch, 20s exposure, HisBP 19 µM) of 460 ± 230 µM, a Kd [4, 20] of 340 ± 120 µM and a Kd [4, 21] of 0.031 ± 0.025 µM. It also gave a Kd [4, 22] of 1.3 ± 2.5 µM, a Kd [4, 23] of 38 ± 28 µM and a Kd [4, 24] of 0.086 µM. The Kd [4, 25] was 36 ± 42 µM, the Kd ([4]; KD fitted to SAXS Rg curves, Diamond, 40s exposure, HisBP 40 µM) was 1500 ± 3200 µM and the Kd [4, 26] was 71 ± 8.9 µM. For the same compound, the Kd [4, 27] was 450 ± 510 µM, the Kd [4, 28] was 9.5 µM and the Kd ([4]; KD fitted to SAXS Vc curves, DESY, 4s exposure, HisBP 10 µM) was 0.18 µM. It also gave a Kd ([4]; KD fitted to SAXS Vc curves, DESY, 4s exposure, HisBP 20 µM) of 44 µM, a Kd [4, 29] of 2.8 µM and a Kd [4, 30] of 9 µM. For the same compound, the Kd ([4]; KD fitted to SAXS Vc curves, Diamond, 40s exposure, HisBP 40 µM) was 57 µM, the Kd [4, 31] was 280 ± 450 µM and the Kd [4, 32] was 150 ± 46 µM. It also gave a Kd [4, 33] of 130 ± 14 µM, a Kd [4, 34] of 0.46 ± 0.5 µM and a Kd [4, 35] of 2.1 ± 3.2 µM. The Kd [4, 36] was 160 ± 230 µM, the Kd [4, 37] was 150 ± 40 µM and the Kd [4, 38] was 4500 ± 3400 µM. For the same compound, the Kd [4, 39] was 260 ± 150 µM, the Kd [4, 40] was 180 ± 15 µM and the Kd [5] was 19.5 ± 6 µM. For the same compound, the Kd [6] was 62 ± 11 µM.
For `NCCC[C@H](N)C(=O)O` [Orn, ornithine], the Kd [5] is listed as 72 ± 4 µM.
